Results as given in patent US12049450B2, “Pyridyloxy-carboxylate derivative and preparation method therefor, herbicidal composition, and use” (Qingdao Kingagroot Chemical Compound Co., Ltd., priority 2018, dated 2024).

How the values were obtained:
Assay in all cases: Post-emergence test experiment (greenhouse pot, spray at 2-3 leaf stage)
Format in all cases: in vivo
Settings in all cases: 1000 g/ha; post-emergence spray at 2-3 leaf stage; assessed after 3 weeks; fresh weight inhibition rate
Monochoria vaginalis = system: Monochoria vaginalis
Method in brief: (§1)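 Activity graded levels 0-5 by fresh-weight inhibition (level 5 above 85%, level 0 below 5%), assessed 3 weeks after treatment. Plants grown in greenhouse pots were sprayed post-emergence at 2-3 leaves using acetone/tween-80 solutions with methyl oleate synergist (1.5 L/ha).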

Galium spurium = system: Galium spurium
Method in brief: as §1

Digitaria sanguinalis = system: Digitaria sanguinalis
Method in brief: as §1

Echinochloa crusgalli = system: Echinochloa crusgalli
Method in brief: as §1

Abutilon theophrasti = system: Abutilon theophrasti
Method in brief: as §1

SMILES	Activity level (growth inhibition rate) Monochoria Vaginalis (Monochoria vaginalis)	Activity level (growth inhibition rate) Galium spurium (Galium spurium)	Activity level (growth inhibition rate) Digitaria sanguinalis (Digitaria sanguinalis)	Activity level (growth inhibition rate) Echinochloa crusgalli (Echinochloa crusgalli)	Activity level (growth inhibition rate) Abutilon theophrasti (Abutilon theophrasti)
CC(Oc1nc(Cl)c(C2CC2)c(N)c1Cl)C(=O)OCc1ccccc1 (centres unmarked) [Compound 10]	5 (Level 5: the growth inhibition rate is greater than 85%)	5 (Level 5: the growth inhibition rate is greater than 85%)	5 (Level 5: the growth inhibition rate is greater than 85%)	5 (Level 5: the growth inhibition rate is greater than 85%)	5 (Level 5: the growth inhibition rate is greater than 85%)
CC(Oc1nc(C(F)(F)F)c(F)c(N)c1C(C)C)C(=O)OCc1ccccc1 (centres unmarked) [Compound 11]	5 (Level 5: the growth inhibition rate is greater than 85%)	5 (Level 5: the growth inhibition rate is greater than 85%)	5 (Level 5: the growth inhibition rate is greater than 85%)	5 (Level 5: the growth inhibition rate is greater than 85%)	5 (Level 5: the growth inhibition rate is greater than 85%)
CC(Oc1ncc(I)c(N)c1I)C(=O)OCc1ccccc1 (centres unmarked) [Compound 13]	5 (Level 5: the growth inhibition rate is greater than 85%)	5 (Level 5: the growth inhibition rate is greater than 85%)	5 (Level 5: the growth inhibition rate is greater than 85%)	5 (Level 5: the growth inhibition rate is greater than 85%)	5 (Level 5: the growth inhibition rate is greater than 85%)
CCCc1c(F)nc(OC(C)C(=O)SCc2ccccc2)c(C2CC2)c1N (centres unmarked) [Compound 14]	5 (Level 5: the growth inhibition rate is greater than 85%)	5 (Level 5: the growth inhibition rate is greater than 85%)	5 (Level 5: the growth inhibition rate is greater than 85%)	5 (Level 5: the growth inhibition rate is greater than 85%)	5 (Level 5: the growth inhibition rate is greater than 85%)
CC(Oc1nc(F)c(C(F)(F)F)c(N)c1Cl)C(=O)OCc1ccccc1 (centres unmarked) [Compound 15]	5 (Level 5: the growth inhibition rate is greater than 85%)	5 (Level 5: the growth inhibition rate is greater than 85%)	5 (Level 5: the growth inhibition rate is greater than 85%)	5 (Level 5: the growth inhibition rate is greater than 85%)	5 (Level 5: the growth inhibition rate is greater than 85%)
CC(Oc1ncc(Cl)c(N)c1C(F)(F)F)C(=O)OCc1ccccc1 (centres unmarked) [Compound 16]	5 (Level 5: the growth inhibition rate is greater than 85%)	5 (Level 5: the growth inhibition rate is greater than 85%)	5 (Level 5: the growth inhibition rate is greater than 85%)	5 (Level 5: the growth inhibition rate is greater than 85%)	5 (Level 5: the growth inhibition rate is greater than 85%)
CC(Oc1nc(I)c(Cl)c(N)c1Cl)C(=O)SCc1ccccc1 (centres unmarked) [Compound 17]	5 (Level 5: the growth inhibition rate is greater than 85%)	5 (Level 5: the growth inhibition rate is greater than 85%)	5 (Level 5: the growth inhibition rate is greater than 85%)	5 (Level 5: the growth inhibition rate is greater than 85%)	5 (Level 5: the growth inhibition rate is greater than 85%)
CCCc1c(OC(C)C(=O)OCc2ccccc2)nc(Br)c(Cl)c1N (centres unmarked) [Compound 18]	5 (Level 5: the growth inhibition rate is greater than 85%)	5 (Level 5: the growth inhibition rate is greater than 85%)	5 (Level 5: the growth inhibition rate is greater than 85%)	5 (Level 5: the growth inhibition rate is greater than 85%)	5 (Level 5: the growth inhibition rate is greater than 85%)
Cc1nc(OC(C)C(=O)OCc2ccccc2)c(C)c(N)c1C (centres unmarked) [Compound 19]	5 (Level 5: the growth inhibition rate is greater than 85%)	5 (Level 5: the growth inhibition rate is greater than 85%)	5 (Level 5: the growth inhibition rate is greater than 85%)	5 (Level 5: the growth inhibition rate is greater than 85%)	5 (Level 5: the growth inhibition rate is greater than 85%)
Cc1c(OC(C)C(=O)OCc2ccccc2)ncc(Cl)c1N (centres unmarked) [Compound 21]	5 (Level 5: the growth inhibition rate is greater than 85%)	5 (Level 5: the growth inhibition rate is greater than 85%)	5 (Level 5: the growth inhibition rate is greater than 85%)	5 (Level 5: the growth inhibition rate is greater than 85%)	5 (Level 5: the growth inhibition rate is greater than 85%)
CC(Oc1nc(F)c(Cl)c(N)c1C1CC1)C(=O)OCc1ccccc1 (centres unmarked) [Compound 22]	5 (Level 5: the growth inhibition rate is greater than 85%)	5 (Level 5: the growth inhibition rate is greater than 85%)	5 (Level 5: the growth inhibition rate is greater than 85%)	5 (Level 5: the growth inhibition rate is greater than 85%)	5 (Level 5: the growth inhibition rate is greater than 85%)
CC(Oc1ncc(Cl)c(N)c1Cl)C(=O)SCc1ccccc1 (centres unmarked) [Compound 23]	5 (Level 5: the growth inhibition rate is greater than 85%)	5 (Level 5: the growth inhibition rate is greater than 85%)	5 (Level 5: the growth inhibition rate is greater than 85%)	5 (Level 5: the growth inhibition rate is greater than 85%)	5 (Level 5: the growth inhibition rate is greater than 85%)
CC(Oc1nc(Cl)c(Cl)c(N)c1Cl)C(=O)SCc1ccccc1 (centres unmarked) [Compound 24]	5 (Level 5: the growth inhibition rate is greater than 85%)	5 (Level 5: the growth inhibition rate is greater than 85%)	5 (Level 5: the growth inhibition rate is greater than 85%)	5 (Level 5: the growth inhibition rate is greater than 85%)	5 (Level 5: the growth inhibition rate is greater than 85%)
